Results taken from DBAASP.
Values after ≈ are worked out from the molar mass of the structure shown. Values joined by “and” are separate entries in the source; they are usually repeats but may differ in a detail not shown here. Identical values can stand only once. Each block holds one compound with its values, some of them ahead of it.

Key:
Experiment in all cases: ≥ marks a high value that may be exact or a test limit, other limits are often not marked, values filed in µg/mL are converted to µM
[1] = system: Candida albicans
[2] = system: Candida krusei CGMCC 2.1857
[3] = system: Candida parapsilosis CGMCC 2.3989
[4] = system: Candida tropicalis CGMCC 2.1975
[5] = system: Escherichia coli 1005
[6] = system: Escherichia coli ATCC 25922
[7] = system: Salmonella enterica subsp. enterica serovar Pullorum ATCC 7913
[8] = system: Salmonella enterica subsp. enterica serovar Typhimurium ATCC 14028
[9] = system: Staphylococcus aureus ATCC 25923
[10] = system: Staphylococcus aureus ATCC 29213
[11] = system: Staphylococcus aureus ATCC 43300
[12] = system: Staphylococcus epidermidis ATCC 12228
[13] = system: Aspergillus niger
[14] = system: Penicillium expansum
[15] = system: Candida albicans CGMCC 2.2086
[16] = system: Bacillus cereus ATCC 11778
[17] = system: Bacillus thuringiensis ATCC 10792
[18] = system: Enterococcus faecium CCT 5079
[19] = system: Enterococcus hirae ATCC 10541
[20] = system: Escherichia coli ATCC 11775
[21] = system: Escherichia coli CCT 1457
[22] = system: Micrococcus luteus ATCC 4698
[23] = system: Pseudomonas aeruginosa ATCC 13388
[24] = system: Pseudomonas aeruginosa ATCC 15422
[25] = system: Salmonella enterica subsp. enterica serovar Choleraesuis ATCC 10708
[26] = system: Staphylococcus aureus CCT 2580
[27] = system: Staphylococcus aureus CCT 6538
[28] = system: Streptococcus mutans AU159
[29] = system: Streptococcus pneumoniae ATCC 11733
[30] = system: Candida albicans ATCC 14053
[31] = system: Micrococcus luteus ATCC 49732
[32] = system: Staphylococcus aureus ATCC 12600
[33] = system: Escherichia coli K12 MG1655
[34] = system: Escherichia coli UTI89
[35] = system: Staphylococcus epidermidis
[36] = system: Bacillus subtilis VKM B-501
[37] = system: Escherichia coli C600
[38] = system: Staphylococcus aureus 209P

MIC [1]: 5.66 µM (≈ 7.79 µg/mL) | MIC [2]: 4 µM (≈ 5.51 µg/mL) | MIC [3]: 16 µM (≈ 22 µg/mL) | MIC [4]: 2 µM (≈ 2.76 µg/mL) | MIC [5]: 4 µM (≈ 5.51 µg/mL) | MIC [6]: 4 µM and > 2 µM | MIC [7]: 2 µM (≈ 2.76 µg/mL) | MIC [8]: 4 µM (≈ 5.51 µg/mL) | MIC [9]: 4 µM (≈ 5.51 µg/mL) | MIC [10]: 4 µM (≈ 5.51 µg/mL) | MIC [11]: 4 µM (≈ 5.51 µg/mL) | MIC [12]: 4 µM (≈ 5.51 µg/mL)
SMILES: NC(=O)[C@H](CCCN=C(N)N)NC(=O)[C@H](Cc1ccccc1)NC(=O)[C@H](CCCN=C(N)N)NC(=O)[C@H](Cc1ccccc1)NC(=O)[C@H](Cc1ccccc1)NC(=O)[C@H](Cc1ccccc1)NC(=O)[C@H](CCCN=C(N)N)NC(=O)[C@H](Cc1ccccc1)NC(=O)[C@@H](N)CCCN=C(N)N [RFRFFFRFR]

MIC [13]: 6.44 µM (≈ 12.5 µg/mL) | MIC [14]: 6.44 µM (≈ 12.5 µg/mL)
SMILES: CC(C)C[C@H](NC(=O)[C@H](Cc1ccccc1)NC(=O)[C@H](CCCN=C(N)N)NC(=O)[C@H](CCCN=C(N)N)NC(=O)[C@H](C)NC(=O)[C@H](Cc1c[nH]c2ccccc12)NC(=O)[C@H](Cc1c[nH]c2ccccc12)NC(=O)[C@H](C)NC(=O)[C@H](CCCN=C(N)N)NC(=O)[C@H](Cc1ccccc1)NC(=O)[C@H](Cc1ccccc1)NC(=O)[C@H](CCCCN)NC(=O)[C@@H](N)CCCCN)C(=O)N[C@@H](CCCCN)C(N)=O [KKFFRAWWARRFLK]

MIC [15]: 4 µM and 8 µM | MIC [1]: 4 µM (≈ 7.54 µg/mL) | MIC [2]: 2 µM (≈ 3.77 µg/mL) | MIC [3]: 8 µM (≈ 15.1 µg/mL) | MIC [4]: 2 µM (≈ 3.77 µg/mL) | MIC [5]: 4 µM (≈ 7.54 µg/mL) | MIC [7]: 2 µM (≈ 3.77 µg/mL) | MIC [8]: 4 µM (≈ 7.54 µg/mL) | MIC [9]: 4 µM (≈ 7.54 µg/mL) | MIC [10]: 2 µM (≈ 3.77 µg/mL) | MIC [11]: 4 µM (≈ 7.54 µg/mL) | MIC [12]: 4 µM (≈ 7.54 µg/mL)
SMILES: NC(=O)[C@H](CCCN=C(N)N)NC(=O)[C@H](CCCN=C(N)N)NC(=O)[C@H](Cc1c[nH]c2ccccc12)NC(=O)[C@H](CCCN=C(N)N)NC(=O)[C@H](Cc1c[nH]c2ccccc12)NC(=O)[C@H](Cc1c[nH]c2ccccc12)NC(=O)[C@H](Cc1c[nH]c2ccccc12)NC(=O)[C@H](CCCN=C(N)N)NC(=O)[C@H](Cc1c[nH]c2ccccc12)NC(=O)[C@H](CCCN=C(N)N)NC(=O)[C@@H](N)CCCN=C(N)N [RRWRWWWRWRR]

MIC [16]: 18.7 µM (≈ 31 µg/mL) | MIC [17]: 18.7 µM (≈ 31 µg/mL) | MIC [18]: 1.21 µM (≈ 2 µg/mL) | MIC [19]: 18.7 µM (≈ 31 µg/mL) | MIC [20]: 2.41 µM (≈ 4 µg/mL) | MIC [6]: 9.66 µM (≈ 16 µg/mL) | MIC [21]: 2.41 µM (≈ 4 µg/mL) | MIC [22]: 0.604 µM (≈ 0.999 µg/mL) | MIC [23]: 2.41 µM (≈ 4 µg/mL) | MIC [24]: 4.83 µM (≈ 8 µg/mL) | MIC [8]: 2.41 µM (≈ 4 µg/mL) | MIC [9]: 1.21 µM (≈ 2 µg/mL) | MIC [26]: 1.21 µM (≈ 2 µg/mL) | MIC [27]: 2.41 µM (≈ 4 µg/mL) | MIC [12]: 0.604 µM (≈ 0.999 µg/mL) | MIC [28]: 2.41 µM (≈ 4 µg/mL) | MIC [29]: 0.604 µM (≈ 0.999 µg/mL)
SMILES: CC[C@H](C)[C@H](N)C(=O)N[C@@H](CC(N)=O)C(=O)N[C@@H](Cc1c[nH]c2ccccc12)C(=O)N[C@@H](CCCCN)C(=O)N[C@@H](CCCCN)C(=O)N[C@H](C(=O)N[C@@H](CCCCN)C(=O)N[C@@H](CCCCN)C(=O)N[C@@H](CCCCN)C(=O)N[C@H](C(=O)N[C@@H](C)C(=O)NCC(=O)N[C@@H](CCSC)C(=O)N[C@@H](CC(C)C)C(N)=O)C(C)C)[C@@H](C)CC [INWKKIKKKVAGML]
MIC [25]: 18.7 µM (≈ 31 µg/mL)

MIC [30]: ≥ 321 µM | MIC [20]: ≥ 107 µM | MIC [31]: ≥ 963 µM | MIC [32]: ≥ 107 µM
SMILES: CC(C)[C@H](NC(=O)[C@H](C)NC(=O)[C@@H](NC(=O)CNC(=O)[C@H](C)N)[C@@H](C)O)C(=O)N[C@@H](Cc1ccccc1)C(=O)N[C@@H](CCCCN)C(=O)O [AGTAVFK]

MIC [33]: 6.25 µM (≈ 11.6 µg/mL) | MIC [34]: 6.25 µM (≈ 11.6 µg/mL) | MIC [8]: 50 µM (≈ 92.5 µg/mL) | MIC [35]: 29 µM (≈ 53.6 µg/mL)
SMILES: CC[C@H](C)[C@H](NC(=O)[C@H](CCCCN)NC(=O)[C@H](CCC(N)=O)NC(=O)[C@H](Cc1c[nH]c2ccccc12)NC(=O)[C@@H](NC(=O)[C@H](CCCCN)NC(=O)[C@@H](N)CCCCN)[C@@H](C)CC)C(=O)N[C@@H](CCCCN)C(=O)N[C@@H](CC(N)=O)C(=O)N[C@@H](Cc1ccccc1)C(=O)N[C@@H](Cc1ccccc1)C(=O)N[C@@H](CCC(N)=O)C(=O)N[C@@H](CCCCN)C(=O)N[C@@H](CC(C)C)C(=O)O [KKIWQKIKNFFQKL]

MIC [33]: ≥ 50 µM | MIC [34]: ≥ 50 µM | MIC [8]: 50 µM (≈ 94.6 µg/mL) | MIC [35]: 7.5 µM (≈ 14.2 µg/mL)
SMILES: CC[C@H](C)[C@H](NC(=O)[C@H](CCCCN)NC(=O)[C@H](CCC(N)=O)NC(=O)[C@H](Cc1c[nH]c2ccccc12)NC(=O)[C@@H](NC(=O)[C@H](CCCCN)NC(=O)[C@@H](N)CCCCN)[C@@H](C)CC)C(=O)N[C@@H](CCCCN)C(=O)N[C@@H](CCCN=C(N)N)C(=O)N[C@@H](Cc1ccccc1)C(=O)N[C@@H](Cc1ccccc1)C(=O)N[C@@H](CCC(N)=O)C(=O)N[C@@H](CCCCN)C(=O)N[C@@H](CC(C)C)C(=O)O [KKIWQKIKRFFQKL]

MIC [36]: 1.5 µM (≈ 4.38 µg/mL) | MIC [37]: 6 µM (≈ 17.5 µg/mL) | MIC [38]: ≥ 36 µM
SMILES: CC[C@H](C)[C@H](NC(=O)[C@H](C)NC(=O)[C@H](CCCCN)NC(=O)[C@H](CCCN=C(N)N)NC(=O)CNC(=O)[C@H](Cc1ccccc1)NC(=O)[C@H](CCCCN)NC(=O)[C@H](CCCCN)NC(=O)[C@H](CCC(N)=O)NC(=O)[C@H](CC(C)C)NC(=O)[C@H](CCCCN)NC(=O)CNC(=O)[C@H](Cc1ccccc1)NC(=O)[C@H](CC(C)C)NC(=O)CN)C(=O)N[C@@H](CO)C(=O)N[C@@H](Cc1ccc(O)cc1)C(=O)N[C@@H](C)C(=O)N[C@H](C(=O)N[C@@H](CCCCN)C(=O)N[C@@H](CCCCN)C(=O)N[C@@H](C)C(=O)N[C@@H](CCCN=C(N)N)C(=O)NCC(=O)N[C@@H](CCCCN)C(=O)N[C@@H](Cc1cnc[nH]1)C(=O)O)C(C)C [GLFGKLQKKFGRKAISYAVKKARGKH]

MIC [36]: 0.7 µM (≈ 2.42 µg/mL) | MIC [37]: 1.5 µM (≈ 5.18 µg/mL) | MIC [38]: 6 µM (≈ 20.7 µg/mL)
SMILES: CC(C)C[C@H](NC(=O)[C@H](CCCN=C(N)N)NC(=O)[C@H](CCCCN)NC(=O)[C@H](CCCCN)NC(=O)[C@H](CC(C)C)NC(=O)[C@H](CC(N)=O)NC(=O)[C@H](C)NC(=O)[C@H](Cc1ccccc1)NC(=O)[C@H](CCCN=C(N)N)NC(=O)[C@H](CCCN=C(N)N)NC(=O)[C@H](CCCCN)NC(=O)[C@H](Cc1ccccc1)NC(=O)[C@H](CO)NC(=O)[C@H](C)NC(=O)CNC(=O)[C@H](Cc1ccccc1)NC(=O)[C@H](CCCCN)NC(=O)[C@H](CCCCN)NC(=O)[C@H](Cc1ccccc1)NC(=O)[C@H](Cc1ccc(O)cc1)NC(=O)[C@H](CCC(=O)O)NC(=O)[C@H](CCCCN)NC(=O)[C@H](CCCN=C(N)N)NC(=O)[C@H](CCCCN)NC(=O)CNC(=O)[C@H](Cc1ccccc1)NC(=O)[C@H](Cc1ccccc1)NC(=O)CN)C(N)=O [GFFGKRKEYFKKFGASFKRRFANLKKRL]
